# Experimental data from patent US9624217B2, “Dihydropyrrolopyridine inhibitors of ROR-gamma” (Vitae Pharmaceuticals, Inc., priority 2014, dated 2017).
# Biological target: recombinant RORγ Ligand Binding Domain (LBD) (Homo sapiens (Human), UniProt P51449)
# Experiment: Radio-Ligand RORγ Binding Assay (Assay 1)
# Conditions: SPA competition with 25-hydroxy [26,27-3H]-cholesterol, cell-free; read-out: RORγ Binding Ki Range
# Protocol: Radio-Ligand RORγ Binding Assay (Assay 1)
# Compounds of the present invention were tested for ability to bind to RORγ in a cell-free competition assay with commercially available radio-ligand (RL), 25-hydroxy [26,27-^3H]-cholesterol (PerkinElmer, Cat. #NET674250UC), for a ligand binding site on a recombinant RORγ Ligand Binding Domain (LBD) protein expressed as a 6×His-Glutathione-S-Transferase (GST) fusion. […] The plate was shaken at 700 rpm for 20 min and incubated for 10 min at rt, after which 40 μL of poly-Lys YSi SPA beads (PerkinElmer, Cat. #RPNQ0010) were added to achieve 50 μg of the beads per well. The plate was incubated on an orbital shaker for 20 min and then for 10 min without agitation at rt. SPA signal for tritium beta radiation was registered on PerkinElmer Microbeta plate reader. […] The percent inhibition vs. concentration data were fit into a four-parameter model, and IC50 values were calculated from the fit as the concentrations corresponding to the inflection points on the dose-response curves.
# Chain of recombinant RORγ Ligand Binding Domain (LBD) (P51449 269-508): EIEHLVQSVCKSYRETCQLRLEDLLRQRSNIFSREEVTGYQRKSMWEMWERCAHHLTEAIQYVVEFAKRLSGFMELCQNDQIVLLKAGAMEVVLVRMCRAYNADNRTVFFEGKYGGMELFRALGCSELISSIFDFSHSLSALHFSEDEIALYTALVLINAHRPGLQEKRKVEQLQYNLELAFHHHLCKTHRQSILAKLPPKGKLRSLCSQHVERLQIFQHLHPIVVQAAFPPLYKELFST
row,SMILES,Ki
1,CC(C)[C@@H]1c2ncc(C(=O)NCc3ccc(S(C)(=O)=O)cc3)cc2CN1Cc1ccc(Cl)cc1 [Compound 18],> 1000 nM
2,CC(C)[C@H]1c2ncc(C(=O)NCc3ccc(S(C)(=O)=O)cc3)cc2CN1Cc1ccc(Cl)cn1 [Compound 23],100 to 1000 nM
3,CC(C)[C@@H]1c2ncc(C(=O)NCc3ccc(S(C)(=O)=O)cc3)cc2CN1Cc1ccc(C(F)(F)F)cn1 [Compound 37],> 1000 nM
4,CCS(=O)(=O)c1ccc(CNC(=O)c2cnc3c(c2)CN(C[C@H]2CC[C@H](C(=O)OC)CC2)[C@H]3C(C)C)cc1 [Compound 44],< 100 nM
5,CC(C)[C@H]1c2ncc(C(=O)NCC3CCS(=O)(=O)CC3)cc2CN1Cc1ccc(C(F)(F)F)cc1 [Compound 61],> 1000 nM
6,CC(C)[C@H]1c2ncc(C(=O)NCCC3CN(C(=O)OC(C)(C)C)C3)cc2CN1Cc1ccc(C(F)(F)F)cc1 [Compound 66],> 1000 nM
7,CC(C)[C@H]1c2ncc(C(=O)NCC3CN(C(=O)OC(C)(C)C)C3)cc2CN1Cc1ccc(C(F)(F)F)cc1 [Compound 68],> 1000 nM
8,CC(C)[C@H]1c2ncc(C(=O)NCC(O)c3ccc(C(F)(F)F)cc3)cc2CN1Cc1ccc(C(F)(F)F)cc1 (stereo partly drawn) [Compound 70],> 1000 nM
9,CC(C)[C@H]1c2ncc(C(=O)N[C@@H](CCO)c3ccc(Cl)cc3)cc2CN1Cc1ccc(C(F)(F)F)cc1 [Compound 71],100 to 1000 nM
10,CC(C)[C@H]1c2ncc(C(=O)NCC3CCN(C(=O)OC(C)(C)C)C3)cc2CN1Cc1ccc(C(F)(F)F)cc1 (stereo partly drawn) [Compound 74],> 1000 nM
11,COC(=O)[C@H]1CC[C@H](CNC(=O)c2cnc3c(c2)CN(Cc2ccc(C(F)(F)F)cc2)[C@H]3C(C)C)CC1 [Compound 75],> 1000 nM
12,CC(C)[C@H]1c2ncc(C(=O)NCc3ccccn3)cc2CN1Cc1ccc(C(F)(F)F)cc1 [Compound 78],100 to 1000 nM
13,CC(C)[C@H]1c2ncc(C(=O)NCC3(c4ccc(Cl)cc4)CC3)cc2CN1Cc1ccc(C(F)(F)F)cc1 [Compound 80],> 1000 nM
14,CC(C)[C@H]1c2ncc(C(=O)NCc3ccccc3CN3CCN(C)CC3)cc2CN1Cc1ccc(C(F)(F)F)cc1 [Compound 81],> 1000 nM
15,CC(C)[C@H]1c2ncc(C(=O)NCc3ccnnc3)cc2CN1Cc1ccc(C(F)(F)F)cc1 [Compound 83],100 to 1000 nM
16,CC(C)[C@H]1c2ncc(C(=O)NCc3cccnn3)cc2CN1Cc1ccc(C(F)(F)F)cc1 [Compound 84],> 1000 nM
17,CCS(=O)(=O)CCNC(=O)c1cnc2c(c1)CN(Cc1ccc(C(F)(F)F)cc1)[C@H]2C(C)C [Compound 86],> 1000 nM
18,CC(C)[C@H]1c2ncc(C(=O)NCCC3CCOCC3)cc2CN1Cc1ccc(C(F)(F)F)cc1 [Compound 90],100 to 1000 nM
19,CC(C)[C@H]1c2ncc(C(=O)NCC(c3ccncc3)N(C)C)cc2CN1Cc1ccc(C(F)(F)F)cc1 (stereo partly drawn) [Compound 92],> 1000 nM
20,CC(C)[C@H]1c2ncc(C(=O)NCC(c3ccc(C(F)(F)F)cc3)N3CCOCC3)cc2CN1Cc1ccc(C(F)(F)F)cc1 (stereo partly drawn) [Compound 93],> 1000 nM

row,SMILES,Ki
1,CC(C)[C@H]1c2ncc(C(=O)NCCCn3ccnc3)cc2CN1Cc1ccc(C(F)(F)F)cc1 [Compound 96],> 1000 nM
2,CC(C)[C@H]1c2ncc(C(=O)NCc3ccccc3OCCN(C)C)cc2CN1Cc1ccc(C(F)(F)F)cc1 [Compound 98],> 1000 nM
3,CC(C)[C@H]1c2ncc(C(=O)NCCN3CCN(C)CC3)cc2CN1Cc1ccc(C(F)(F)F)cc1 [Compound 99],> 1000 nM
4,CC(C)[C@H]1c2ncc(C(=O)NCC3CCN(C)CC3)cc2CN1Cc1ccc(C(F)(F)F)cc1 [Compound 100],> 1000 nM
5,CC(C)[C@H]1c2ncc(C(=O)NCCc3ccnc(O)c3)cc2CN1Cc1ccc(C(F)(F)F)cc1 [Compound 101],> 1000 nM
6,CCS(=O)(=O)N1CC(CCNC(=O)c2cnc3c(c2)CN(Cc2ccc(C(F)(F)F)cc2)[C@H]3C(C)C)C1 [Compound 102],100 to 1000 nM
7,CCS(=O)(=O)N1CC(CNC(=O)c2cnc3c(c2)CN(Cc2ccc(C(F)(F)F)cc2)[C@H]3C(C)C)C1 [Compound 104],100 to 1000 nM
8,COC(=O)N1CC(CNC(=O)c2cnc3c(c2)CN(Cc2ccc(C(F)(F)F)cc2)[C@H]3C(C)C)C1 [Compound 105],> 1000 nM
9,CCS(=O)(=O)N1CCC(CNC(=O)c2cnc3c(c2)CN(Cc2ccc(C(F)(F)F)cc2)[C@H]3C(C)C)C1 (stereo partly drawn) [Compound 106],100 to 1000 nM
10,COC(=O)N1CCC(CNC(=O)c2cnc3c(c2)CN(Cc2ccc(C(F)(F)F)cc2)[C@H]3C(C)C)C1 (stereo partly drawn) [Compound 107],100 to 1000 nM
11,CNC(=O)[C@H]1CC[C@H](CNC(=O)c2cnc3c(c2)CN(Cc2ccc(C(F)(F)F)cc2)[C@H]3C(C)C)CC1 [Compound 108],> 1000 nM
12,CC(C)[C@H]1c2ncc(C(=O)NCc3ccncc3)cc2CN1Cc1ccc(C(F)(F)F)cc1 [Compound 115],100 to 1000 nM
13,CC(C)[C@H]1c2ncc(C(=O)NCc3cccc(S(C)(=O)=O)c3)cc2CN1Cc1ccc(C(F)(F)F)cc1 [Compound 116],100 to 1000 nM
14,CC(C)[C@H]1c2ncc(C(=O)N[C@H](C)c3ccc(Br)cc3)cc2CN1Cc1ccc(C(F)(F)F)cc1 [Compound 119],> 1000 nM
15,CC(C)[C@H]1c2ncc(C(=O)NC3(c4cnccn4)CC3)cc2CN1Cc1ccc(C(F)(F)F)cc1 [Compound 120],> 1000 nM
16,CC(C)[C@H]1c2ncc(C(=O)NC(CO)c3ccc(Br)cc3)cc2CN1Cc1ccc(C(F)(F)F)cc1 (stereo partly drawn) [Compound 123],100 to 1000 nM
17,CC(C)[C@H]1c2ncc(C(=O)N[C@H]3c4ccccc4C[C@H]3O)cc2CN1Cc1ccc(C(F)(F)F)cc1 [Compound 125],> 1000 nM
18,COC(=O)C(Cc1ccc(F)cc1)NC(=O)c1cnc2c(c1)CN(Cc1ccc(C(F)(F)F)cc1)[C@H]2C(C)C (stereo partly drawn) [Compound 126],> 1000 nM
19,CC(C)[C@H]1c2ncc(C(=O)N[C@H]3c4ccccc4C[C@H]3O)cc2CN1Cc1ccc(C(F)(F)F)cc1 [Compound 130],> 1000 nM

# Second part, the compound after the results:
row,Ki,SMILES
1,> 1000 nM,CC(C)[C@@H]1c2ncc(C(=O)NCc3ccc(S(C)(=O)=O)cc3)cc2CN1Cc1ccc(C#N)cc1 [Compound 19]
2,100 to 1000 nM,CC(C)[C@H]1c2ncc(C(=O)NCc3ccc(S(C)(=O)=O)cc3)cc2CN1Cc1ccc(C(F)(F)F)cn1 [Compound 36]
3,< 100 nM,CCS(=O)(=O)c1ccc(CNC(=O)c2cnc3c(c2)C(=O)N(C[C@H]2CC[C@H](C(F)(F)F)CC2)[C@H]3C(C)C)nc1 [Compound 47]
4,> 1000 nM,CC(C)[C@H]1c2ncc(C(=O)NCCC3CCS(=O)(=O)CC3)cc2CN1Cc1ccc(C(F)(F)F)cc1 [Compound 62]
5,100 to 1000 nM,"COC(=O)c1ccc(CNC(=O)c2cnc3c(c2)CN(Cc2ccc(C(F)(F)F)cc2)[C@H]3C(C)C)cc1 [Compound 65, Methyl (S)-4-((7-isopropyl-6-(4-(trifluoromethyl)benzyl)-6,7-dihydro-5H-pyrrolo[3,4-b]pyridine-3-carboxamido)methyl)benzoate]"
6,> 1000 nM,CC(C)[C@H]1c2ncc(C(=O)NCc3cn4cccnc4n3)cc2CN1Cc1ccc(C(F)(F)F)cc1 [Compound 69]
7,> 1000 nM,CC(C)[C@H]1c2ncc(C(=O)NCCN3CCOCC3)cc2CN1Cc1ccc(C(F)(F)F)cc1 [Compound 77]
8,> 1000 nM,CC(C)[C@H]1c2ncc(C(=O)NCCCN3CCCC3=O)cc2CN1Cc1ccc(C(F)(F)F)cc1 [Compound 79]
9,> 1000 nM,CC(C)[C@H]1c2ncc(C(=O)NCc3ccn(C)n3)cc2CN1Cc1ccc(C(F)(F)F)cc1 [Compound 82]
10,> 1000 nM,CC(C)[C@H]1c2ncc(C(=O)NCC3COCCO3)cc2CN1Cc1ccc(C(F)(F)F)cc1 (stereo partly drawn) [Compound 85]
11,> 1000 nM,CC(C)[C@H]1c2ncc(C(=O)NC3(CO)Cc4ccccc4C3)cc2CN1Cc1ccc(C(F)(F)F)cc1 [Compound 87]
12,> 1000 nM,CC(C)[C@H]1c2ncc(C(=O)NCC(c3cccnc3)N3CCOCC3)cc2CN1Cc1ccc(C(F)(F)F)cc1 (stereo partly drawn) [Compound 88]
13,> 1000 nM,CC(C)[C@H]1c2ncc(C(=O)NCc3nnc4n3CCC4)cc2CN1Cc1ccc(C(F)(F)F)cc1 [Compound 94]
14,> 1000 nM,CC(C)[C@H]1c2ncc(C(=O)NCCc3ccccn3)cc2CN1Cc1ccc(C(F)(F)F)cc1 [Compound 97]
15,> 1000 nM,COC(=O)N1CCC(CNC(=O)c2cnc3c(c2)CN(Cc2ccc(C(F)(F)F)cc2)[C@H]3C(C)C)CC1 [Compound 110]
16,> 1000 nM,CC(O)C(=O)N1CCC(CNC(=O)c2cnc3c(c2)CN(Cc2ccc(C(F)(F)F)cc2)[C@H]3C(C)C)CC1 (stereo partly drawn) [Compound 112]
17,100 to 1000 nM,CC(C)[C@H]1c2ncc(C(=O)NCC3CCN(C(=O)CO)CC3)cc2CN1Cc1ccc(C(F)(F)F)cc1 [Compound 113]
18,> 1000 nM,CC(=O)N1CCC(CNC(=O)c2cnc3c(c2)CN(Cc2ccc(C(F)(F)F)cc2)[C@H]3C(C)C)CC1 [Compound 114]
19,> 1000 nM,CC(C)[C@H]1c2ncc(C(=O)NCC(F)(F)F)cc2CN1Cc1ccc(C(F)(F)F)cc1 [Compound 117]
20,> 1000 nM,CC(C)[C@H]1c2ncc(C(=O)NCC3(O)CCC4(CC3)OCCO4)cc2CN1Cc1ccc(C(F)(F)F)cc1 [Compound 118]
21,> 1000 nM,CC(C)[C@H]1c2ncc(C(=O)NCCC3C(=O)Nc4ccc(Cl)cc43)cc2CN1Cc1ccc(C(F)(F)F)cc1 (stereo partly drawn) [Compound 121]
22,> 1000 nM,CC(C)NC(=O)c1cnc2c(c1)CN(Cc1ccc(C(F)(F)F)cc1)[C@H]2C(C)C [Compound 122]
23,> 1000 nM,CC(C)[C@H]1c2ncc(C(=O)NCC(F)F)cc2CN1Cc1ccc(C(F)(F)F)cc1 [Compound 124]
24,100 to 1000 nM,CC(C)[C@H]1c2ncc(C(=O)NC[C@H]3CC[C@H](C#N)CC3)cc2CN1Cc1ccc(C(F)(F)F)cc1 [Compound 129]
